Calls of active or inactive are those of the source. How the calls were made is not given here.
These molecules were tested on S. cerevisiae tim23-1 mutant growth, luminescence (assay: analog potency on tim23-1 yeast growth – luminescence, S. cerevisiae, SAR follow-up (AID 602375)).

SMILES	IC50
Cc1nc2scc(C)n2c(=O)c1S(=O)(=O)Nc1ccc(N2CCN(C(=O)C(C)C)CC2)cc1	> 99 µM (inactive)
Cc1nc2scc(C)n2c(=O)c1S(=O)(=O)Nc1ccc(Cl)c(C(F)(F)F)c1	> 99 µM (inactive)
N/C(=N\OC(=O)c1ccc2ncsc2c1)c1ccc(Cl)cc1Cl	1.48 µM
O=c1cc(C(F)F)oc2c1ccc1ccccc12	> 99 µM (inactive)
Cc1ccc2nc(CSc3nc(C)c(C)c(C)c3C(N)=O)cc(=O)n2c1	29.6 µM
Cc1cccn2c(=O)cc(CSc3cc(C(=O)NC4CC4)c4ccccc4n3)nc12	> 99 µM (inactive)
CCN(CC)S(=O)(=O)c1ccc(C(=O)OCn2nnc3ccccc3c2=O)cc1	13 µM
O=C(CSCc1ccccc1)Nc1cc(S(=O)(=O)N2CCOCC2)ccc1Oc1ccccc1	> 99 µM (inactive)
CCCN(C(=O)c1ccc([N+](=O)[O-])c(C)c1)c1c(N)n(Cc2ccccc2)c(=O)[nH]c1=O	0.987 µM
COc1ccc(C2N=C(c3ccccc3C)NO2)cc1O (stereo unspecified)	> 99 µM (inactive)
O=C(Nc1ccc2nc(-c3ccc(Br)o3)[nH]c2c1)c1cccs1	0.882 µM
CC(=O)Nc1ccc(C(C(F)(F)F)(C(F)(F)F)C(F)(F)F)cc1	> 99 µM (inactive)
N/C(=N\OC(=O)c1ccc2ccccc2c1)c1ccc(I)cc1	> 99 µM (inactive)
Cc1nn(Cc2cccc(C(=O)O/N=C(\N)c3ccc(Cl)cc3)c2)c(C)c1Br	2.65 µM
O=c1cc(CSc2ccc(C(F)(F)F)cn2)nc2ccc(Br)cn12	> 99 µM (inactive)
CCOc1cc2ccccc2cc1C(=O)O/N=C(\N)c1ccc(Cl)cc1	1.57 µM
CCn1c(N2CCN(S(=O)(=O)c3ccc(OC)cc3)CC2)nc2ccccc21	3.69 µM
Cc1nc2scc(C)n2c(=O)c1S(=O)(=O)Nc1ccc(Oc2ccc(Cl)cc2)cc1	> 99 µM (inactive)
Cc1nc2scc(C)n2c(=O)c1S(=O)(=O)Nc1ccc(F)cc1Cl	52.7 µM
C(/C=C/c1ccccc1)=NNc1nc2ccccc2[nH]1	11.2 µM
O=C(Nc1ccc2nc(-c3ccco3)[nH]c2c1)c1cccs1	0.459 µM
N/C(Cc1cccc2ccccc12)=N\OC(=O)COc1ccc(Cl)cc1Cl	19.1 µM

SMILES	IC50
N#Cc1c(-c2ccccc2)cc(-c2ccc(O)cc2)nc1N	2.9 µM
COc1ccc2c(C)cc(SCc3cc(=O)n4cc(C)ccc4n3)nc2c1	> 99 µM (inactive)
N/C(=N\OC(=O)c1ccc(Cl)cc1)c1ccc(Cl)cc1	3.02 µM
CC(=O)c1ccc(NS(=O)(=O)c2c(C)nc3scc(C)n3c2=O)cc1	15.9 µM
N/C(Cc1ccc(Cl)cc1)=N\OC(=O)COc1ccccc1Cl	4.54 µM
Cc1cc2cc(CNC(=O)c3ccc(F)c(F)c3)ccc2[nH]1	> 99 µM (inactive)
CC1(C)C=Cc2cc(/C(N)=N/OC(=O)c3ccccc3)ccc2O1	0.617 µM
O=C(NN=C/C=C\c1ccco1)c1cccs1	6.87 µM
CC(C)(C)c1csc(NC(=O)c2ccc(Cl)s2)n1	17.3 µM
CCOc1ccc(C(=O)O/N=C(\N)c2ccc(OC)cc2)cc1OCC	1.48 µM
Cc1nc2scc(C)n2c(=O)c1S(=O)(=O)Nc1ccc(N2CCOCC2)c(Cl)c1	> 99 µM (inactive)
CCN(C(=O)c1cccc2ncccc12)c1c(N)n(Cc2ccccc2)c(=O)[nH]c1=O	> 99 µM (inactive)
N/C(=N\OC(=O)c1ccc2ncsc2c1)c1ccccc1	14.8 µM
Cc1ccc2nc(CSc3ccc(S(=O)(=O)N4CCCC4)cn3)cc(=O)n2c1	> 99 µM (inactive)
Cc1nc2scc(C)n2c(=O)c1S(=O)(=O)Nc1ccccc1	> 99 µM (inactive)
N=c1c2c(-c3ccccc3)c(-c3ccccc3)n(Cc3ccco3)c2ncn1CCCN1CCOCC1	> 99 µM (inactive)
Cc1ccc2nc(NC(=O)C3CCCN3S(C)(=O)=O)sc2c1 (stereo unspecified)	91.9 µM
O=C(Nc1ccn[nH]1)c1ccc(Br)cc1Cl	> 99 µM (inactive)
O=S(=O)(Nc1ccc(-c2cn3c(n2)SCC3)cc1)c1cccnc1	> 99 µM (inactive)
COc1ccc(Cl)cc1NS(=O)(=O)c1c(C)nc2scc(C)n2c1=O	> 99 µM (inactive)
Cc1ccc(/C(N)=N/OC(=O)c2ccccc2)cc1F	1.52 µM
Cc1nc(SCc2cc(=O)n3cc(Br)ccc3n2)c(C#N)c(C)c1C	> 99 µM (inactive)

SMILES	IC50
Cc1nc2scc(C)n2c(=O)c1S(=O)(=O)Nc1ccc(N2CCOCC2)cc1	16.3 µM
O=C(O)c1cccnc1SCc1cc(=O)n2cc(Br)ccc2n1	> 99 µM (inactive)
COc1ccc([N+](=O)[O-])cc1NS(=O)(=O)c1c(C)nc2scc(C)n2c1=O	> 99 µM (inactive)
N/C(=N\OC(=O)c1ccc(Cl)cc1)c1ccc(Oc2ccc(C(F)(F)F)cn2)cc1	0.57 µM
CN1CCc2nc3sc(C(=O)C45CC6CC(CC(C6)C4)C5)c(N)c3cc2C1	18.1 µM
O=C(Nc1ccc(-c2cn3ccccc3n2)cc1)c1cccs1	0.897 µM
O=C(Nc1nc2ccccc2s1)C1CCCN1S(=O)(=O)c1ccc(Cl)cc1 (stereo unspecified)	12 µM
O=C(Nc1ccn[nH]1)c1cccc(OCc2cccnc2)c1	> 99 µM (inactive)
Cc1ccc(S(=O)(=O)Cc2cc(=O)n3ccccc3n2)nc1	> 99 µM (inactive)
Cc1nc2scc(C)n2c(=O)c1S(=O)(=O)Nc1cc(C(F)(F)F)ccc1Cl	> 99 µM (inactive)
O=c1cc(CSc2ccccn2)nc2ccccn12	> 99 µM (inactive)
N#C/C(=C\c1ccc(Cl)cc1)C(=O)Nc1cccnc1	16 µM
O=C(O/N=C(/c1ccc(Br)cc1)N1CCOCC1)c1ccccc1	0.787 µM
Cc1cc(OCC(=O)O/N=C(\N)Cc2ccc(Cl)cc2)ccc1Br	3.69 µM
N/C(=N\OC(=O)c1ccc(Cl)cc1)c1ccc2nonc2c1	> 99 µM (inactive)
N#Cc1c(-c2ccc([N+](=O)[O-])cc2)cc(-c2ccccc2)nc1N	> 99 µM (inactive)
Cc1ccc(-c2nc3ccc(NC(=O)c4cccs4)cc3[nH]2)o1	1.42 µM
COc1ccc(/C(N)=N/OC(=O)c2ccc(C(F)(F)F)cc2)c(OC)c1	> 99 µM (inactive)
Cc1c2c(n(Cc3ccco3)c1C)N=CN1CCS(=O)(=O)N=C21	> 99 µM (inactive)
Cc1csc(NC(=O)c2sc3nc4c(cc3c2N)CN(C)CC4)n1	> 99 µM (inactive)
O=C(N/N=C/C(Cl)=C\c1ccccc1)c1cccs1	2.3 µM
N/C(=N\OC(=O)c1ccc(Cl)cc1)c1ccc(-c2csnn2)cc1	> 99 µM (inactive)

SMILES	IC50
CC(=O)c1ccc2[nH]c3c(c2c1)CCCC3=O	> 99 µM (inactive)
COc1ccc(/C=C/C(=O)Nc2ccc3c(c2)CCC3)cc1OC	1.72 µM
Cc1ccc2nc(CS(=O)(=O)c3ncccc3Cl)cc(=O)n2c1	> 99 µM (inactive)
Cc1ccc(-c2nn(-c3ccccc3)cc2NC(=O)CCl)cc1	1.75 µM
CC(C)Cn1cnc2c(c(-c3ccccc3)c(-c3ccccc3)n2Cc2ccco2)c1=N	21.6 µM
Cn1c(SCc2cccc(/C(N)=N/OC(=O)c3ccc(Cl)cc3)c2)nnc1C(F)(F)F	2.37 µM
O=c1cc(CSc2ccc(S(=O)(=O)N3CCCCC3)cn2)nc2ccc(Br)cn12	70.2 µM
Cc1nc2scc(C)n2c(=O)c1S(=O)(=O)Nc1ccc(OC(F)(F)F)cc1	16.5 µM
O=C(Nc1nc2c(s1)Cc1ccccc1-2)c1ccc(Br)s1	> 99 µM (inactive)
O=C1OC(c2ccccc2)=N/C1=C\C=C\c1ccco1	2.44 µM
CCOc1ccc2nc(N3C(=O)CNC3=S)sc2c1	> 99 µM (inactive)
CN1CCN(c2nc(-c3cccnc3)nc3ccccc23)CC1	> 99 µM (inactive)
Cc1ccc2nc(N3CCN(S(C)(=O)=O)CC3)[nH]c2c1	> 99 µM (inactive)
Cc1nc2scc(C)n2c(=O)c1S(=O)(=O)Nc1ccc(N2CCN(S(C)(=O)=O)CC2)cc1	> 99 µM (inactive)
CN(C(=O)c1cccc(S(C)(=O)=O)c1)c1c(N)n(Cc2ccccc2)c(=O)[nH]c1=O	> 99 µM (inactive)
CCN1CCc2nc3sc(C(=O)Nc4cc(Cl)ccc4OC)c(N)c3cc2C1	> 99 µM (inactive)
O=C(CSc1cccc[n+]1[O-])Nc1ccccc1Oc1ccccc1	1.06 µM
Cc1nc2scc(C)n2c(=O)c1S(=O)(=O)Nc1cccc(O)c1	> 99 µM (inactive)
Cc1ccc(-c2cc(NC(=O)c3c(C)noc3C)nc(-c3ccccc3)c2)cc1	> 99 µM (inactive)
N#Cc1ccc(C2N=C(c3ccccc3)NO2)cc1 (stereo unspecified)	> 99 µM (inactive)
